Values of other authors in patent US20160375234A1, “[…] METHODS AND COMPOSITIONS FOR DIAGNOSING AND TREATING BREAST CONDITIONS” (ATOSSA GENETIC INC., priority 2014, published 2016).

Tested on: early-stage, HER2-overexpressing or -amplified breast cancer
Conditions: patients with early-stage, presurgical

SMILES: CS(=O)(=O)CCNCc1ccc(-c2ccc3ncnc(Nc4ccc(OCc5cccc(F)c5)c(Cl)c4)c3c2)o1 [lapatinib]
- growth of breast premalignancy (including ADH and DCIS) and invasive cancer: suppressed growth
